Reference: ChEMBL document CHEMBL5728342, “Heterocyclic compounds for the inhibition of pask” (2021)

Biological target: PAS domain-containing serine/threonine-protein kinase (Homo sapiens, UniProt Q96RG2)
Test: FRET Assay : Table 3: In the presence of kinase and ATP, the Ulight-peptide is phosphorylated and captured by an anti-phospho-substrate antibody, which brings the Eu chelate donor and Ulight acceptor dyes into close proximity. Upon excitation at 340 nm, the Eu chelate transfers its energy to the Ulight dye, resulting in a fluorescent light emission at 665 nm. Titration of kinase at 1 mM ATP was achieved via the following protocol. After making serial three-fold dilutions of PASK (Invitrogen) in reaction buffer across the plate; 5 μl of kinase dilution and 5 μl substrate/ATP mix were added to the wells of the white Optiplate-384 (PerkinElmer). The contents of the plate were and incubated at RT for 1 h. The reaction was stopped by adding 5 μl of stop solution to each test well followed by mixing and incubation at RT for 10 minutes. 5 μl of detection mix (detection antibody diluted in detection buffer) was added; the contents of the plate were mixed and then incubated in the dark for 1 hour at RT. The signal was recorded at TR-FRET mode (665 nm/615 nm). The results were graphed to calculate the EC50.

Sequence of PAS domain-containing serine/threonine-protein kinase (Q96RG2 whole entry, the tested form may be a part): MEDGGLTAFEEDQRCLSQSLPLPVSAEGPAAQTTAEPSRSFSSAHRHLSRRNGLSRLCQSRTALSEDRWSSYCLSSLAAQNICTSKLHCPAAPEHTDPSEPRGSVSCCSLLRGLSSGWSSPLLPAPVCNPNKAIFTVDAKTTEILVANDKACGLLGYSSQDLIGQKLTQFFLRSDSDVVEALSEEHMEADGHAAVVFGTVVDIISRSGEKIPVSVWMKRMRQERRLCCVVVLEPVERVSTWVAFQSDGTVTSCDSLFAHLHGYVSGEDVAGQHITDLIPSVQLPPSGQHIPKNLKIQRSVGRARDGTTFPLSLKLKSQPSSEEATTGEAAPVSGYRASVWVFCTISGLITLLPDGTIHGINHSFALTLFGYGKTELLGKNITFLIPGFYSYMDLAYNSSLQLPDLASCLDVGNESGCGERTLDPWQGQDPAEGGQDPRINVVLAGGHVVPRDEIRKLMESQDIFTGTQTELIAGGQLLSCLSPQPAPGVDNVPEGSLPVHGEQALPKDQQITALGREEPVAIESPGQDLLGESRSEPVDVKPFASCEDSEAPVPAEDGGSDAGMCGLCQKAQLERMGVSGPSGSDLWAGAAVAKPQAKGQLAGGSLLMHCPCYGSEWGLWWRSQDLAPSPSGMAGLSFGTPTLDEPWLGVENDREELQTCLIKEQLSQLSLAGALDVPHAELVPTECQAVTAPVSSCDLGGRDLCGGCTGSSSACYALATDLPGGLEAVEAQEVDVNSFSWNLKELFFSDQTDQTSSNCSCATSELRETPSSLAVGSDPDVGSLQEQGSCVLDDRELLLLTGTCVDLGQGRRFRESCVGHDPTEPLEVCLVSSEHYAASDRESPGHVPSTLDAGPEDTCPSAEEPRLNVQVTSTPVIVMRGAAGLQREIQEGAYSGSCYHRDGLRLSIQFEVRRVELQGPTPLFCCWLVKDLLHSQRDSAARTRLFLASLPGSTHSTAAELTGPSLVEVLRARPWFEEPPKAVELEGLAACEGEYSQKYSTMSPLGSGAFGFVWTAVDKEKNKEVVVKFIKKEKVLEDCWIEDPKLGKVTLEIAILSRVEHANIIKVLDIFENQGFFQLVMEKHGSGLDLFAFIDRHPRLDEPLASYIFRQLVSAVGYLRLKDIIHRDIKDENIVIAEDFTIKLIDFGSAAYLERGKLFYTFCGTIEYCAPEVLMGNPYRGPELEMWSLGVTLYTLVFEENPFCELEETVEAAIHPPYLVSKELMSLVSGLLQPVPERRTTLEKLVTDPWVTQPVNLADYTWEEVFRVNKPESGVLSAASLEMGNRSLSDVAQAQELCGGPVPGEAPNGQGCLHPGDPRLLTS

Question: Which IC50 does the source give for `Nc1nn2c(c1-c1ccccn1)CC(c1ccc3c(c1)OC(F)(F)O3)=CC2=O` here?
Answer: The IC50 was under 10 µM.
